Data published in article PMC10077475, “DG9-conjugated morpholino rescues phenotype in SMA mice by reaching the CNS via a subcutaneous administration” (JCI Insight, 2023).

Tested on: severe SMA mouse model
Assay: Body weight of SMA mice at PD7
Type: in vivo
Experimental: Injections were carried out using a 30-gauge Hamilton syringe. SMA mice identified following genotyping were randomly assigned to a treatment group. The researcher injecting mice was blinded to the treatment. SMA neonates were subcutaneously injected with 40 or 80 mg/kg of AOs at PD0, while NT and heterozygous control mice were injected with saline (n = 10–49) per group. Tissues including the quadriceps muscle, liver, kidney, spleen, diaphragm, intercostal muscle, heart, brain, and spinal cord were collected and snap-frozen in dry ice– cooled isopentane, then subsequently stored at –80°C.

## CC(=O)N[C@@H](Cc1ccc(O)cc1)C(=O)N[C@@H](C)C(=O)N[C@H](CCCNC(=N)N)C(=O)N[C@H](C(=O)N[C@@H](CCCNC(=N)N)C(=O)N[C@@H](CCCNC(=N)N)C(=O)N[C@H](CCCNC(=N)N)C(=O)NCC(=O)N1CCC[C@H]1C(=O)N[C@@H](CCCNC(=N)N)C(=O)NCC(=O)N[C@@H](Cc1ccc(O)cc1)C(=O)N[C@@H](C)C(=O)N[C@H](CCCNC(=N)N)C(=O)N[C@H](C(=O)N[C@@H](CCCNC(=N)N)C(=O)N[C@@H](CCCNC(=N)N)C(=O)N[C@H](CCCNC(=N)N)C(=O)NCC(=O)N1CCC[C@H]1C(=O)N[C@@H](CCCNC(=N)N)C(=O)N[C@H](CCCNC(=N)N)C(=O)N1C[C@@H](COP(=O)(N(C)C)N2C[C@@H](COP(=O)(N(C)C)N3C[C@@H](COP(=O)(N(C)C)N4C[C@@H](COP(=O)(N(C)C)N5C[C@@H](COP(=O)(N(C)C)N6C[C@@H](COP(=O)(N(C)C)N7C[C@@H](COP(=O)(N(C)C)N8C[C@@H](COP(=O)(N(C)C)N9C[C@@H](COP(=O)(N(C)C)N%10C[C@@H](COP(=O)(N(C)C)N%11C[C@@H](COP(=O)(N(C)C)N%12C[C@@H](COP(=O)(N(C)C)N%13C[C@@H](COP(=O)(N(C)C)N%14C[C@@H](COP(=O)(N(C)C)N%15C[C@@H](COP(=O)(N(C)C)N%16C[C@@H](COP(=O)(N(C)C)N%17C[C@@H](COP(=O)(N(C)C)N%18C[C@@H](COP(=O)(N(C)C)N%19CCC(C(N)=O)CC%19)O[C@@H](n%19cc(C)c(=O)[nH]c%19=O)C%18)O[C@@H](n%18ccc(N)nc%18=O)C%17)O[C@@H](n%17cnc%18c(N)ncnc%18%17)C%16)O[C@@H](n%16ccc(N)nc%16=O)C%15)O[C@@H](n%15cc(C)c(=O)[nH]c%15=O)C%14)O[C@@H](n%14cc(C)c(=O)[nH]c%14=O)C%13)O[C@@H](n%13cc(C)c(=O)[nH]c%13=O)C%12)O[C@@H](n%12ccc(N)nc%12=O)C%11)O[C@@H](n%11cnc%12c(N)ncnc%12%11)C%10)O[C@@H](n%10cc(C)c(=O)[nH]c%10=O)C9)O[C@@H](n9cnc%10c(N)ncnc%109)C8)O[C@@H](n8cnc9c(N)ncnc98)C7)O[C@@H](n7cc(C)c(=O)[nH]c7=O)C6)O[C@@H](n6cnc7c(=O)[nH]c(N)nc76)C5)O[C@@H](n5ccc(N)nc5=O)C4)O[C@@H](n4cc(C)c(=O)[nH]c4=O)C3)O[C@@H](n3cnc4c(=O)[nH]c(N)nc43)C2)O[C@@H](n2cnc3c(=O)[nH]c(N)nc32)C1)C(C)C)C(C)C (some centres unmarked) [DG9-PMO]
40 mg/kg s.c. at PD0
  body weight at PD7 versus R6G-PMO: weighed significantly more than R6G-PMO–treated neonates
Both doses (40 and 80 mg/kg) s.c. at PD0
  body weight at PD7: significantly heavier than the NT and unconjugated PMO–treated littermates
